Earlier results in PMC5354290 (PLoS ONE, 2017).

How the values were obtained:
[1] = tested on: rat model of formalin-induced pain; details: in vivo, iv
[2] = tested on: rat model of spared nerve injury; details: in vivo, iv

Compound	effective dose, times lower than those usually required for analgesia [1]	effective dose, times lower than those usually required for analgesia [2]	inhibition (in words) (rat NaV1.2)	inhibition (in words) (rNaV1.3)	inhibition (in words) (rNaV1.4)	inhibition (in words) (rNaV1.5)
CN1CC[C@]23c4c5ccc(O)c4O[C@H]2[C@@H](O)C=C[C@H]3[C@H]1C5 [morphine]	at least 20 times	at least 20 times				
Huwentoxin-IV [HwTx-IV]			inhibits	inhibits	far less potent	far less potent
